From ChEMBL document CHEMBL1141978, “Synthesis and antibacterial activities of 5-hydroxy-4-amino-2(5H)-furanones” (2005)
In brackets after ≈: the same amount, converted by molar mass.

Tests used:
Escherichia coli [1] = assay: Zone of inhibition of Escherichia coli after treatment with the compound; format: functional
Pseudomonas aeruginosa [2] = assay: Zone of inhibition of Pseudomonas aeruginosa after treatment with the compound; format: functional
Staphylococcus aureus [3] = assay: Zone of inhibition of Staphylococcus aureus after treatment with compound; format: functional
Acinetobacter sp. [4] = assay: Minimum inhibitory concentration in Acinetobacter species A1 strain was determined; format: functional
Acinetobacter sp. [5] = assay: Minimum inhibitory concentration in Acinetobacter species A2 strain was determined; format: functional
Klebsiella pneumoniae [6] = assay: Minimum inhibitory concentration in Klebsiella pneumoniae K1 strain was determined; format: functional
Klebsiella pneumoniae [7] = assay: Minimum inhibitory concentration in Klebsiella pneumoniae K2 strain was determined; format: functional
Staphylococcus aureus [8] = assay: Minimum inhibitory concentration in Staphylococcus aureus S1 strain was determined; format: functional
Staphylococcus aureus [9] = assay: Minimum inhibitory concentration in Staphylococcus aureus S2 strain was determined; format: functional
[10] = Minimum […] concentration in Enterobacter En1 strain was determined; format: functional
[11] = Minimum […] concentration in Enterobacter En3 strain was determined; format: functional
Escherichia coli [12] = assay: Minimum […] concentration in Escherichia coli E1 strain was determined; format: functional
Escherichia coli [13] = assay: Minimum […] concentration in Escherichia coli E3 strain was determined; format: functional
Escherichia coli [14] = assay: Minimum […] concentration Escherichia coli ATCC 25922 strain was determined; format: functional
Acinetobacter sp. [15] = assay: Minimum […] concentration in Acinetobacter species A1 strain was determined; format: functional
Acinetobacter sp. [16] = assay: Minimum […] concentration in Acinetobacter species A2 strain was determined; format: functional
Klebsiella pneumoniae [17] = assay: Minimum […] concentration in Klebsiella pneumoniae K1 strain was determined; format: functional
Klebsiella pneumoniae [18] = assay: Minimum […] concentration in Klebsiella pneumoniae K2 strain was determined; format: functional
Staphylococcus aureus [19] = assay: Minimum […] concentration in Staphylococcus aureus S1 strain was determined; format: functional
Staphylococcus aureus [20] = assay: Minimum […] concentration in Staphylococcus aureus S2 strain was determined; format: functional
Pseudomonas aeruginosa [21] = assay: Minimum […] concentration in Pseudomonas aeruginosa P7 strain was determined; format: functional
Pseudomonas aeruginosa [22] = assay: Minimum […] concentration in Pseudomonas aeruginosa ATCC 27853 was determined; format: functional
Pseudomonas aeruginosa [23] = assay: Minimum […] concentration in Pseudomonas aeruginosa P12 strain was determined; format: functional
Staphylococcus aureus [24] = assay: Minimum […] concentration in Staphylococcus aureus ATCC 25923 strain was determined; format: functional
Pseudomonas aeruginosa [25] = assay: Minimum inhibitory concentration in Pseudomonas aeruginosa P7 strain was determined; format: functional
Pseudomonas aeruginosa [26] = assay: Minimum inhibitory concentration in Pseudomonas aeruginosa P12 strain was determined; format: functional
Escherichia coli [27] = assay: Minimum inhibitory concentration in Escherichia coli ATCC 25922 strain was determined; format: functional
Escherichia coli [28] = assay: Minimum inhibitory concentration in Escherichia coli E1 strain was determined; format: functional
Escherichia coli [29] = assay: Minimum inhibitory concentration in Escherichia coli E3 strain was determined; format: functional
[30] = Minimum inhibitory concentration in Enterobacter En1 strain was determined; format: functional
[31] = Minimum inhibitory concentration in Enterobacter En3 strain was determined; format: functional
Staphylococcus aureus [32] = assay: Minimum inhibitory concentration in Staphylococcus aureus ATCC 25923 strian was determined; format: functional
Pseudomonas aeruginosa [33] = assay: Minimum inhibitory concentration in Pseudomonas aeruginosa ATCC 27853 strain was determined; format: functional
Staphylococcus aureus [34] = assay: Zone of inhibition of Staphylococcus aureus after treatment with the 30 ug of the compound; format: functional
Pseudomonas aeruginosa [35] = assay: Zone of inhibition of Pseudomonas aeruginosa after treatment with the 30 ug of the compound; format: functional
Escherichia coli [36] = assay: Zone of inhibition of Escherichia coli after treatment with the 30 ug of the compound; format: functional
Staphylococcus aureus [37] = assay: Zone of inhibition of Staphylococcus aureus after treatment with the compound; format: functional
Staphylococcus aureus [38] = assay: Zone of inhibition of Staphylococcus aureus after treatment with 10 ug of the compound; format: functional, organism-based
Pseudomonas aeruginosa [39] = assay: Zone of inhibition of Pseudomonas aeruginosa after treatment with 10 ug of the compound; format: functional, organism-based
Escherichia coli [40] = assay: Zone of inhibition of Escherichia coli after treatment with 10 ug of the compound; format: functional, organism-based

Compound | Inhibition (Escherichia coli [1]) [mm] | Inhibition (Pseudomonas aeruginosa [2]) [mm] | Inhibition (Staphylococcus aureus [3]) [mm] | MIC (Acinetobacter sp. [4]) [µg/mL] | MIC (Acinetobacter sp. [5]) [µg/mL] | MIC (Klebsiella pneumoniae [6]) [µg/mL] | MIC (Klebsiella pneumoniae [7]) [µg/mL] | MIC (Staphylococcus aureus [8]) [µg/mL] | MIC (Staphylococcus aureus [9]) [µg/mL] | MBC [10] [µg/mL] | MBC [11] [µg/mL] | MBC (Escherichia coli [12]) [µg/mL] | MBC (Escherichia coli [13]) [µg/mL] | MBC (Escherichia coli [14]) [µg/mL] | MBC (Acinetobacter sp. [15]) [µg/mL] | MBC (Acinetobacter sp. [16]) [µg/mL] | MBC (Klebsiella pneumoniae [17]) [µg/mL] | MBC (Klebsiella pneumoniae [18]) [µg/mL] | MBC (Staphylococcus aureus [19]) [µg/mL] | MBC (Staphylococcus aureus [20]) [µg/mL] | other results
C/N=C1\C(Br)=C(O)OC1O (stereo unspecified) | 9 | 7 | 16 |  |  |  |  |  |  |  |  |  |  |  |  |  |  |  |  |  | 
C/N=C1\C(Cl)=C(O)OC1O (stereo unspecified) | 11 | 8 | 10 | 8 (≈ 48.9 µM) | 64 (≈ 391 µM) | 16 (≈ 97.8 µM) | 32 (≈ 196 µM) | 16 (≈ 97.8 µM) | 4 (≈ 24.5 µM) | 64 (≈ 391 µM) | 32 (≈ 196 µM) | 32 (≈ 196 µM) | 64 (≈ 391 µM) | 32 (≈ 196 µM) | 16 (≈ 97.8 µM) | 64 (≈ 391 µM) | 32 (≈ 196 µM) | 64 (≈ 391 µM) | 32 (≈ 196 µM) | 8 (≈ 48.9 µM) | MBC (Pseudomonas aeruginosa [21]): 64 µg/mL (≈ 391 µM); MBC (Pseudomonas aeruginosa [22]): 32 µg/mL (≈ 196 µM); MBC (Pseudomonas aeruginosa [23]): 64 µg/mL (≈ 391 µM); MBC (Staphylococcus aureus [24]): 16 µg/mL (≈ 97.8 µM); MIC (Pseudomonas aeruginosa [25]): 32 µg/mL (≈ 196 µM); MIC (Pseudomonas aeruginosa [26]): 32 µg/mL (≈ 196 µM); MIC (Escherichia coli [27]): 16 µg/mL (≈ 97.8 µM); MIC (Escherichia coli [28]): 32 µg/mL (≈ 196 µM); MIC (Escherichia coli [29]): 64 µg/mL (≈ 391 µM); MIC [30]: 32 µg/mL (≈ 196 µM); MIC [31]: 32 µg/mL (≈ 196 µM); MIC (Staphylococcus aureus [32]): 8 µg/mL (≈ 48.9 µM); MIC (Pseudomonas aeruginosa [33]): 16 µg/mL (≈ 97.8 µM)
O=C(N[C@H](CO)[C@H](O)c1ccc([N+](=O)[O-])cc1)C(Cl)Cl [CHLORAMPHENICOL] |  |  |  |  |  |  |  |  |  |  |  |  |  |  |  |  |  |  |  |  | Inhibition (Staphylococcus aureus [34]): 0 mm; Inhibition (Pseudomonas aeruginosa [35]): 0 mm; Inhibition (Escherichia coli [36]): 15 mm
OC1=C(Cl)/C(=N\Cc2ccccc2)C(O)O1 (stereo unspecified) | 6 | 6 | 16 | 4 (≈ 16.7 µM) | 8 (≈ 33.4 µM) | 32 (≈ 134 µM) | 16 (≈ 66.8 µM) | 16 (≈ 66.8 µM) | 32 (≈ 134 µM) | 16 (≈ 66.8 µM) | 32 (≈ 134 µM) | 16 (≈ 66.8 µM) | 32 (≈ 134 µM) | 16 (≈ 66.8 µM) | 8 (≈ 33.4 µM) | 16 (≈ 66.8 µM) | 32 (≈ 134 µM) | 32 (≈ 134 µM) | 32 (≈ 134 µM) | 32 (≈ 134 µM) | MBC (Pseudomonas aeruginosa [21]): 32 µg/mL (≈ 134 µM); MBC (Pseudomonas aeruginosa [22]): 64 µg/mL (≈ 267 µM); MBC (Pseudomonas aeruginosa [23]): 32 µg/mL (≈ 134 µM); MBC (Staphylococcus aureus [24]): 8 µg/mL (≈ 33.4 µM); MIC (Pseudomonas aeruginosa [25]): 32 µg/mL (≈ 134 µM); MIC (Pseudomonas aeruginosa [26]): 16 µg/mL (≈ 66.8 µM); MIC (Escherichia coli [27]): 8 µg/mL (≈ 33.4 µM); MIC (Escherichia coli [28]): 16 µg/mL (≈ 66.8 µM); MIC (Escherichia coli [29]): 16 µg/mL (≈ 66.8 µM); MIC [30]: 8 µg/mL (≈ 33.4 µM); MIC [31]: 16 µg/mL (≈ 66.8 µM); MIC (Staphylococcus aureus [32]): 4 µg/mL (≈ 16.7 µM); MIC (Pseudomonas aeruginosa [33]): 32 µg/mL (≈ 134 µM)
N=C1C(Cl)=C(O)OC1O (stereo unspecified) | 8 | 8 | 16 | 16 (≈ 107 µM) | 32 (≈ 214 µM) | 32 (≈ 214 µM) | 128 (≈ 856 µM) | 16 (≈ 107 µM) | 4 (≈ 26.7 µM) | 64 (≈ 428 µM) | 64 (≈ 428 µM) | 64 (≈ 428 µM) | 128 (≈ 856 µM) | 128 (≈ 856 µM) | 32 (≈ 214 µM) | 64 (≈ 428 µM) | 64 (≈ 428 µM) | 128 (≈ 856 µM) | 16 (≈ 107 µM) | 8 (≈ 53.5 µM) | MBC (Pseudomonas aeruginosa [21]): 64 µg/mL (≈ 428 µM); MBC (Pseudomonas aeruginosa [22]): 64 µg/mL (≈ 428 µM); MBC (Pseudomonas aeruginosa [23]): 128 µg/mL (≈ 856 µM); MBC (Staphylococcus aureus [24]): 32 µg/mL (≈ 214 µM); MIC (Pseudomonas aeruginosa [25]): 32 µg/mL (≈ 214 µM); MIC (Pseudomonas aeruginosa [26]): 64 µg/mL (≈ 428 µM); MIC (Escherichia coli [27]): 64 µg/mL (≈ 428 µM); MIC (Escherichia coli [28]): 32 µg/mL (≈ 214 µM); MIC (Escherichia coli [29]): 64 µg/mL (≈ 428 µM); MIC [30]: 64 µg/mL (≈ 428 µM); MIC [31]: 64 µg/mL (≈ 428 µM); MIC (Staphylococcus aureus [32]): 16 µg/mL (≈ 107 µM); MIC (Pseudomonas aeruginosa [33]): 32 µg/mL (≈ 214 µM)
C[S+](C)[O-] [DIMETHYL SULFOXIDE] | 0 | 0 |  |  |  |  |  |  |  |  |  |  |  |  |  |  |  |  |  |  | Inhibition (Staphylococcus aureus [37]): 0 mm
GENTAMICIN |  |  |  |  |  |  |  |  |  |  |  |  |  |  |  |  |  |  |  |  | Inhibition (Staphylococcus aureus [38]): 31 mm; Inhibition (Pseudomonas aeruginosa [39]): 0 mm; Inhibition (Escherichia coli [40]): 25 mm
